Assay results taken from patent US8969335B2, “Benzonitrile derivatives as kinase inhibitors” (MERCK PATENT GmbH, priority 2011, dated 2015).
Like-named read-outs stand apart in the source and are kept apart here.

Assays:
[1] = target: TANK binding kinase (TBK1) (Homo sapiens (Human), UniProt Q9UHD2); assay: TBK1 enzyme assay (384-well flashplate kinase assay); type: biochemical; conditions: 0.6 nM TBK1, 10 μM ATP, 30° C., 120 min
[2] = test system: TBK1 + IKKε (phospho-IRF3 @ Ser 386, MDA-MB-468 cells); assay: TBK1 + IKKε cell assay: dose response inhibition of phospho-IRF3 @ Ser 386 in MDA-MB-468 cells; type: cell-based; conditions: Homo sapiens
[3] = target: IKKε (Homo sapiens (Human), UniProt Q14164); assay: IKKε kinase assay (384-well flashplate assay); type: biochemical; conditions: 1 nM IKKε, 10 μM ATP, 30° C., 2 hours; read-out: IKKε enzyme assay IC50
Chain of IKKε (Q14164 whole entry): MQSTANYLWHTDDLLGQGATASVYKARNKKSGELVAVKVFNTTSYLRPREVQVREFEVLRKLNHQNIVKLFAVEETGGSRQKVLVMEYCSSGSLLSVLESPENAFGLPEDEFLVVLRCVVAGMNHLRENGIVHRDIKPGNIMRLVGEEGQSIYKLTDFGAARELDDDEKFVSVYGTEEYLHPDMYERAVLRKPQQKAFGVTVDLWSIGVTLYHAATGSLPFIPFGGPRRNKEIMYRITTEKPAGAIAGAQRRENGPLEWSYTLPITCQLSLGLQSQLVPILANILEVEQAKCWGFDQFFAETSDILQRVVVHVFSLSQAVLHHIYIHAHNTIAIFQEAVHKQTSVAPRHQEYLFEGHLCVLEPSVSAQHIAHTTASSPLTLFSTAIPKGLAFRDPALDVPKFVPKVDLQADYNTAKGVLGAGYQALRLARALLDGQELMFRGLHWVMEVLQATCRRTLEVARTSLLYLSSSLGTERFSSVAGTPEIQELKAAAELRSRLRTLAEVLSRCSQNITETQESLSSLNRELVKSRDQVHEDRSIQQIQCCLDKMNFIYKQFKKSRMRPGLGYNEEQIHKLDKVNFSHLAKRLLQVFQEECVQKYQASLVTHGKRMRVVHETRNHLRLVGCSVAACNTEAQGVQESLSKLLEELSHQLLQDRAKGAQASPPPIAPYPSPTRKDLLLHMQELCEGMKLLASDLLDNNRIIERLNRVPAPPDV
Method: Test for the Inhibition of IKKε
IKKε—Kinase Assay (IKKepsilon)
The kinase assay is performed as 384-well flashplate assay (for example for Topcount measurement).
1 nM IKKε, 800 nM biotinylated IκBα(19-42) peptide (Biotin-C6-C6-[…]) and 10 μM ATP (spiked with 0.3 μCi of ^33P-ATP/well) are incubated at 30° C. for 2 hours in a total volume of 50 μl (10 mM MOPS, 10 mM Mg acetate, 0.1 mM EGTA, 1 mM dithiothreitol, 0.02% of Brij35, 0.1% of BSA, 0.1% of BioStab, pH 7.5) with or without test compound. The reaction is stopped using 25 μl of 200 mM EDTA. After 30 min at room temperature, the liquid is removed, and each well is washed three times with 100 μl of 0.9% sodium chloride solution. Non-specific reaction is determined in the presence of 3 μM MSC2119074 (BX-795). The radioactivity is measured using a Topcount (PerkinElmer). The results (for example IC50 values) are calculated using program tools provided by the IT Department (for example AssayExplorer, Symyx).

[4] = poly(I:C) stimulation, nuclear phospho-IRF3, read-out: TBK1 + IKKε cell assay IC50

Chain of TANK binding kinase (TBK1) (Q9UHD2 whole entry): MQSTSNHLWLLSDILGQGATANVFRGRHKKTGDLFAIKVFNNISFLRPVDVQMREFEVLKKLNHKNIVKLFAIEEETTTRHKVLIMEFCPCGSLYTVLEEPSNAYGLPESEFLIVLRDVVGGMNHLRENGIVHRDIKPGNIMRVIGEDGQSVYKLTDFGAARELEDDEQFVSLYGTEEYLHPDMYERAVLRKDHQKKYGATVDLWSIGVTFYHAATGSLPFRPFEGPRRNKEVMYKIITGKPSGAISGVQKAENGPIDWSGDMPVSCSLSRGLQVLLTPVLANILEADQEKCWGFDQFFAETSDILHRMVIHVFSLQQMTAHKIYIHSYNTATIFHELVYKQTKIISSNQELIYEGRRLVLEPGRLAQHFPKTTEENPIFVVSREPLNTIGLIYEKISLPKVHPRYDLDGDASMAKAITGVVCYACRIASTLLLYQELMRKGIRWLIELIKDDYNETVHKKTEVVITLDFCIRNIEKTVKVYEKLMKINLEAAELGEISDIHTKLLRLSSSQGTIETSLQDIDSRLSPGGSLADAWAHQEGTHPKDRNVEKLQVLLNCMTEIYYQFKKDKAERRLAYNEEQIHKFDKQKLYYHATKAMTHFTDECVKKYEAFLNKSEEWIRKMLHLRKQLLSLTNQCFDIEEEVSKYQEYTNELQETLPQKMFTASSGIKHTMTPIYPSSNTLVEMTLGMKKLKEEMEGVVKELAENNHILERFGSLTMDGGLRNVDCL

IC50 [1] | IC50 [2, 4] | IC50 [3] | IC50 ([2]; reference inhibitor range, read-out: IC50 of reference inhibitor in phospho-IRF3 cell assay) | SMILES
41 nM | 4100 nM | 46 nM |  | N#Cc1cc(-c2ccnc(Nc3ccc(CO)cn3)c2)ccc1OCC1CC1 [Compound A106, 2-cyclopropylmethoxy-5-[2-(5-hydroxymethylpyridin-2-ylamino)pyridin-4-yl]benzonitrile]
120 nM | 4900 nM | 91 nM |  | N#Cc1cc(-c2ccnc(Nc3cnn(CCO)c3)c2)ccc1OC1CCOCC1 [Compound A79, 5-{2-[1-(2-hydroxyethyl)-1H-pyrazol-4-ylamino]pyridin-4-yl}-2-(tetrahydropyran-4-yloxy)benzonitrile]
260 nM | 3300 nM | 370 nM |  | N#Cc1cc(-c2ccnc(Nc3ccc(-c4cccnc4)cn3)c2)ccc1OC1CCOCC1 [Compound A3, 5-[2-([3,3′]Bipyridinyl-6-ylamino)pyridin-4-yl]-2-(tetrahydropyran-4-yloxy)benzonitrile]
100 nM | 4900 nM | 82 nM |  | N#Cc1cc(-c2ccnc(Nc3ncc(C4CCNCC4)cn3)c2)ccc1OC1CCOCC1 [Compound A66, 5-[2-(5-piperidin-4-ylpyrimidin-2-ylamino)pyridin-4-yl]-2-(tetrahydropyran-4-yloxy)benzonitrile]
24 nM | 450 nM | 25 nM |  | N#Cc1cc(-c2ccnc(Nc3ccc(CN4CCOCC4)cn3)c2)ccc1OC1CCOCC1 [Compound A118, 5-[2-(5-morpholin-4-ylmethylpyridin-2-ylamino)pyridin-4-yl]-2-(tetrahydropyran-4-yloxy)benzonitrile]
14 nM | 350 nM | 10 nM |  | CN(C)Cc1ccnc(Nc2cc(-c3ccc(OC4CCOCC4)c(C#N)c3)ccn2)c1 [Compound A81, 5-[2-(4-dimethyl-aminomethylpyridin-2-ylamino)pyridin-4-yl]-2-(tetrahydropyran-4-yloxy)benzonitrile]
120 nM | 7800 nM | 160 nM |  | COCCCn1cc(Nc2cc(-c3ccc(OC4CCOCC4)c(C#N)c3)ccn2)cn1 [Compound A23, 5-{2-[1-(3-Methoxypropyl)-1H-pyrazol-4-ylamino]pyridin-4-yl}-2-(tetrahydropyran-4-yloxy)benzonitrile]
30 nM | 1400 nM | 12 nM |  | N#Cc1cc(-c2ccnc(Nc3cc(CN)ccn3)c2)ccc1OC1CCOCC1 [Compound A77, 5-[2-(4-aminomethyl-pyridin-2-ylamino)pyridin-4-yl]-2-(tetrahydropyran-4-yloxy)benzonitrile]
10 nM | 810 nM | 8 nM |  | N#Cc1cc(-c2ccnc(Nc3cnn(C[C@H]4C[C@@H]4CO)c3)n2)ccc1OCC1CCC1 [Compound A95, 2-cyclobutylmethoxy-5-{2-[1-((1S,2S)-2-hydroxymethylcyclopropylmethyl)-1H-pyrazol-4-ylamino]pyrimidin-4-yl}benzonitrile]
250 nM | 5200 nM | 240 nM |  | N#Cc1ccc(Nc2cc(-c3ccc(OC4CCOCC4)c(C#N)c3)ccn2)nc1 [Compound A11, 6-{4-[3-Cyano-4-(tetrahydropyran-4-yloxy)phenyl]pyridin-2-ylamino}nicotinonitrile]
21 nM | 2400 nM | 6 nM |  | N#Cc1cc(-c2ccnc(Nc3ccc(C4CCNCC4)nn3)c2)ccc1OC1CCOCC1 [Compound A71, 5-[2-(6-piperidin-4-ylpyridazin-3-ylamino)pyridin-4-yl]-2-(tetrahydropyran-4-yloxy)benzonitrile]
8 nM | 350 nM | 15 nM |  | N#Cc1cc(-c2ccnc(Nc3ccc(N4CCOCC4)cn3)c2)ccc1OC1CCOCC1 [Compound A7, 5-[2-(5-Morpholin-4-ylpyridin-2-ylamino)pyridin-4-yl]-2-(tetrahydropyran-4-yloxy)benzonitrile]
60 nM | 5300 nM | 88 nM |  | N#Cc1cc(-c2ccnc(Nc3cnn(CCN4CCCC4)c3)n2)ccc1OC1CCOCC1 [Compound A83, 5-{2-[1-(2-pyrrolidin-1-ylethyl)-1H-pyrazol-4-ylamino]pyrimidin-4-yl}-2-(tetrahydropyran-4-yloxy)benzonitrile]
6 nM | 670 nM | 18 nM |  | COCCn1cc(Nc2nccc(-c3ccc(OC4CCOCC4)c(C#N)c3)n2)cn1 [Compound A35, 5-{2-[1-(2-Methoxyethyl)-1H-pyrazol-4-ylamino]pyrimidin-4-yl}-2-(tetrahydropyran-4-yloxy)benzonitrile]
55 nM | 4800 nM | 51 nM |  | N#Cc1cc(-c2ccnc(Nc3cnn(CC(F)F)c3)c2)ccc1OC1CCOCC1 [Compound A20, 5-{2-[1-(2,2-Difluoroethyl)-1H-pyrazol-4-ylamino]pyridin-4-yl}-2-(tetrahydropyran-4-yloxy)benzonitrile]
21 nM | 1200 nM | 43 nM |  | CC(C)(C)c1cc(Nc2cc(-c3ccc(OC4CCOCC4)c(C#N)c3)ccn2)n[nH]1 [Compound A10, 5-[2-(5-tert-Butyl-1H-pyrazol-3-ylamino)pyridin-4-yl]-2-(tetrahydropyran-4-yloxy)benzonitrile]
3 nM | 500 nM | 4 nM |  | N#Cc1cc(-c2ccnc(Nc3cnn(CCO)c3)n2)ccc1OC1CCOCC1 [Compound A75, 5-{2-[1-(2-hydroxyethyl)-1H-pyrazol-4-ylamino]pyrimidin-4-yl}-2-(tetrahydropyran-4-yloxy)benzonitrile]
70 nM | 5300 nM | 37 nM |  | N#Cc1cc(-c2ccnc(Nc3cnn(CCC4CCNCC4)c3)c2)ccc1OC1CCOCC1 [Compound A21, 5-{2-[1-(2-Piperidin-4-ylethyl)-1H-pyrazol-4-ylamino]pyridin-4-yl}-2-(tetrahydropyran-4-yloxy)benzonitrile]
130 nM | 5000 nM | 58 nM |  | Cn1ccc(Nc2nccc(-c3ccc(OC4CCOCC4)c(C#N)c3)n2)n1 [Compound A33, 5-[2-(1-Methyl-1H-pyrazol-3-ylamino)pyrimidin-4-yl]-2-(tetrahydropyran-4-yloxy)benzonitrile]
11 nM | 2100 nM | 39 nM |  | N#Cc1cc(-c2ccnc(Nc3cnn([C@H]4CC[C@@H](O)CC4)c3)n2)ccc1OCC1CCC1 [Compound A97, 2-cyclobutylmethoxy-5-{2-[1-(4-hydroxycyclohexyl)-1H-pyrazol-4-ylamino]-pyrimidin-4-yl}benzonitrile]
230 nM | 13000 nM | 210 nM |  | Cc1cc(Nc2nccc(-c3ccc(OC4CCOCC4)c(C#N)c3)n2)no1 [Compound A80, 5-[2-(5-methylisoxazol-3-ylamino)pyrimidin-4-yl]-2-(tetrahydropyran-4-yloxy)benzonitrile]
 |  |  | 200 to 800 nM | O=C(NCCCNc1nc(Nc2cccc(NC(=O)N3CCCC3)c2)ncc1I)c1cccs1 [BX-795, reference compound]
550 nM |  | 310 nM |  | Cc1coc(Nc2nccc(-c3ccc(OC4CCOCC4)c(C#N)c3)n2)n1 [Compound A93, 5-[2-(4-methyloxazol-2-ylamino)pyrimidin-4-yl]-2-(tetrahydropyran-4-yloxy)benzonitrile]
810 nM |  | 610 nM |  | CC(=O)N1CCC(COc2ccc(-c3ccnc(Nc4ccc(N5CCOCC5)cn4)c3)cc2C#N)CC1 [Compound A117, 2-(1-acetylpiperidin-4-ylmethoxy)-5-[2-(5-morpholin-4-ylpyridin-2-ylamino)pyridin-4-yl]benzonitrile]
170 nM |  | 120 nM |  | N#Cc1cc(-c2ccnc(Nc3cc(C(=O)O)ccn3)c2)ccc1OC1CCOCC1 [Compound A65, 2-{4-[3-cyano-4-(tetrahydropyran-4-yloxy)phenyl]pyridin-2-ylamino}isonicotinic acid]
85 nM |  | 77 nM |  | N#Cc1cc(-c2ccnc(Nc3cnn(CC4CCOC4)c3)c2)ccc1OC1CCOCC1 (stereo not drawn) [Compound A27, 5-{2-[1-(Tetrahydrofuran-3-ylmethyl)-1H-pyrazol-4-ylamino]pyridin-4-yl}-2-(tetrahydropyran-4-yloxy)benzonitrile]
1600 nM |  | 650 nM |  | N#Cc1cc(-c2ccnc(Nc3ccc(=O)[nH]n3)n2)ccc1OC1CCOCC1 [Compound A69, 5-[2-(6-oxo-1,6-dihydropyridazin-3-ylamino)pyrimidin-4-yl]-2-(tetrahydropyran-4-yloxy)benzonitrile]
1900 nM |  | 390 nM |  | N#Cc1cc(-c2ccnc(Nc3ccc4oc(C(N)=O)cc4c3)c2)ccc1OC1CCOCC1 [Compound A19, 5-{4-[3-Cyano-4-(tetrahydropyran-4-yloxy)phenyl]pyridin-2-ylamino}benzofuran-2-carboxamide]
290 nM |  | 67 nM |  | N#Cc1cc(-c2ccnc(Nc3cnn(C4CNC4)c3)c2)ccc1OC1CCOCC1 [Compound A25, 5-[2-(1-Azetidin-3-yl-1H-pyrazol-4-ylamino)pyridin-4-yl]-2-(tetrahydropyran-4-yloxy)benzonitrile]
